Assay results taken from patent publication US20250109140A1, “5-[5-(PIPERIDIN-4-YL)THIENO[3,2-C]PYRAZOL-2-YL]INDAZOLE DERIVATIVES AND RELATED COMPOUNDS AS MODULATORS FOR SPLICING NUCLEIC ACIDS AND FOR THE TREATMENT OF PROLIFERATIVE DISEASES” (REMIX THERAPUTICS INC., priority 2022, published 2025).
Like-named read-outs stand apart in the source and are kept apart here.

Columns and labels:
Type in all cases: cell-based
Target C mRNA = assay: Splicing RT-qPCR gene panel, Target C canonical junction (CJ) mRNA; conditions: Homo sapiens; Table 8; larger gene panel, decrease in CJ mRNA levels
Procedure, shortened: (§1)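 A673/K562; 11-pt 3-fold dil., top 10 uM final, ≤0.25% DMSO; 24 h, 37 °C, 5% CO2. Lysis, then RT-qPCR of CJ/AJ isoforms, ≥duplicate. ΔCt vs housekeeper (GAPDH/GUSB/PPIA), ΔΔCt vs DMSO, RQ = 2^(−ΔΔCt), expressed as % response.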

MYB mRNA = assay: Splicing RT-qPCR assay, MYB canonical (CJ) and alternative (AJ) junction mRNA; conditions: Homo sapiens; for EC50: AC50 = 50% response in AJ mRNA increase
Procedure, shortened: as §1

HTT mRNA = assay: Splicing RT-qPCR assay, HTT canonical (CJ) and alternative (AJ) junction mRNA; conditions: Homo sapiens; for EC50: AC50 = 50% response in AJ mRNA increase
Procedure, shortened: as §1

SMN2 mRNA = assay: Splicing RT-qPCR gene panel, SMN2 canonical junction (CJ) mRNA; conditions: Homo sapiens; Table 8; larger gene panel, decrease in CJ mRNA levels
Procedure, shortened: as §1

[1] = Table 7, RT-qPCR, A673 or K562 cells, 24 hours treatment
[2] = Table 7, IC50 = 50% response in CJ mRNA decrease, RT-qPCR, A673 or K562 cells, 24 hours treatment, read-out: MYB CJ
[3] = Table 8, larger gene panel, decrease in CJ mRNA levels, read-out: MYB CJ IC50
[4] = Table 7, IC50 = 50% response in CJ mRNA decrease, RT-qPCR, A673 or K562 cells, 24 hours treatment, read-out: HTT CJ
[5] = Table 8, larger gene panel, decrease in CJ mRNA levels, read-out: HTT CJ IC50

| SMILES | IC50 (Target C mRNA) [µM] | EC50 (MYB mRNA; [1]) [µM] | IC50 (MYB mRNA; [2]) [µM] | IC50 (MYB mRNA; [3]) [µM] | EC50 (HTT mRNA; [1]) [µM] | IC50 (HTT mRNA; [4]) [µM] | IC50 (HTT mRNA; [5]) [µM] | IC50 (SMN2 mRNA) [µM] |
| --- | --- | --- | --- | --- | --- | --- | --- | --- |
| Cn1cc2c(O)c(-c3nc4sc(C5CCNCC5)cc4s3)ccc2n1 [Compound 231, 2-methyl-5-[5-(piperidin-4-yl)thieno[2,3-d][1,3]thiazol-2-yl]indazol-4-ol] | > 10 | 1 to 10 | > 10 | 1 to 10 | 1 to 10 | 1 to 10 | 1 to 10 | 0.1 to 1 |
| Cn1cc2cc(-c3nc4sc(N5CCC6(CCN6)C5)cc4s3)cc(F)c2n1 (centres unmarked) [Compound 233, 5-(5-{1,6-diazaspiro[3.4]octan-6-yl}thieno[2,3-d][1,3]thiazol-2-yl)-7-fluoro-2-methylindazole] | > 10 | 1 to 10 | 1 to 10 | 1 to 10 | 1 to 10 | 1 to 10 | 1 to 10 | < 0.1 |
| COc1c(-c2nc3sc(C4CCNCC4)cc3s2)cc(F)c2nn(C)cc12 [Compound 237, 7-fluoro-4-methoxy-2-methyl-5-[5-(piperidin-4-yl)thieno[2,3-d][1,3]thiazol-2-yl]indazole] | > 10 | > 10 | 1 to 10 | > 10 | > 10 | > 10 | > 10 | > 10 |
| Cn1cc2cc(-c3nc4sc([C@H]5CCNC[C@H]5F)cc4s3)cc(F)c2n1 [Compound 240, 7-fluoro-5-{5-[(3S,4S)-3-fluoropiperidin-4-yl]thieno[2,3-d][1,3]thiazol-2-yl}-2-methylindazole] | > 10 | 1 to 10 | 1 to 10 | 1 to 10 | 1 to 10 | 1 to 10 | 1 to 10 | 0.1 to 1 |
| COc1c(-c2cc3cn(C4CCNCC4)nc3s2)cc2c[nH]nc2c1C [Compound 248] | > 10 | > 10 | > 10 | > 10 | > 10 | > 10 | > 10 | > 10 |
| Cn1cc2cc(N3Cc4cc(C5CCNCC5)sc4C3=O)cc(F)c2n1 [Compound 1118, 5-(7-fluoro-2-methylindazol-5-yl)-2-(piperidin-4-yl)-4H-thieno[2,3-c]pyrrol-6-one] | 1 to 10 | 1 to 10 | 1 to 10 | 1 to 10 | 0.1 to 1 | 0.1 to 1 | 0.1 to 1 | < 0.1 |
| Cn1cc2cc(N3Cc4sc(C5CCNCC5)cc4C3=O)ccc2n1 [Compound 1120] | 1 to 10 | 1 to 10 | 1 to 10 | 1 to 10 | 1 to 10 | 1 to 10 | 1 to 10 | 0.1 to 1 |
| Cn1cc2cc(N3Cc4sc(C5CCNCC5)cc4C3=O)ncc2n1 [Compound 1125] | 1 to 10 | 1 to 10 | 1 to 10 | 1 to 10 | 1 to 10 | 1 to 10 | 1 to 10 | 0.1 to 1 |

The remaining lines, values ahead:

| IC50 (Target C mRNA) [µM] | EC50 (MYB mRNA; [1]) [µM] | IC50 (MYB mRNA; [2]) [µM] | IC50 (MYB mRNA; [3]) [µM] | EC50 (HTT mRNA; [1]) [µM] | IC50 (HTT mRNA; [4]) [µM] | IC50 (HTT mRNA; [5]) [µM] | IC50 (SMN2 mRNA) [µM] | SMILES |
| --- | --- | --- | --- | --- | --- | --- | --- | --- |
| 1 to 10 | 1 to 10 | 1 to 10 | 1 to 10 | 1 to 10 | 1 to 10 | 1 to 10 | 1 to 10 | CN1CCC2(CC1)CCN2c1cc2sc(-c3cc(F)c4nn(C)cc4c3)nc2s1 [Compound 204, 1-[2-(7-fluoro-2-methylindazol-5-yl)thieno[2,3-d][1,3]thiazol-5-yl]-7-methyl-1,7-diazaspiro [3.5]nonane] |
| 1 to 10 | 1 to 10 | 1 to 10 | 1 to 10 | 1 to 10 | 1 to 10 | 1 to 10 | 0.1 to 1 | Cc1cn2nc(-c3nc4sc(C5CNC5)cc4s3)cc(C)c2n1 [Compound 235, 3-(2-{2,8-dimethylimidazo[1,2-b]pyridazin-6-yl}thieno[2,3-d][1,3]thiazol-5-yl) azetidine] |
| 1 to 10 | 1 to 10 | 0.1 to 1 | 1 to 10 | 1 to 10 | 0.1 to 1 | 1 to 10 | 0.1 to 1 | Cn1cc2cc(-c3nc4sc(C5(O)CCNCC5)cc4s3)cc(F)c2n1 [Compound 236, 4-[2-(7-fluoro-2-methylindazol-5-yl)thieno[2,3-d][1,3]thiazol-5-yl]piperidin-4-ol] |
| 0.1 to 1 | 0.1 to 1 | 0.1 to 1 | 0.1 to 1 | < 0.1 | < 0.1 | < 0.1 | < 0.1 | Cc1cc(-c2nc3sc(C4CCNCC4)cc3s2)cc2cn(C)nc12 [Compound 238, 2,7-dimethyl-5-[5-(piperidin-4-yl)thieno[2,3-d][1,3]thiazol-2-yl]indazole] |
| 1 to 10 | 1 to 10 | 1 to 10 | 1 to 10 | 1 to 10 | 0.1 to 1 | 1 to 10 | 0.1 to 1 | Cc1cn2cc(-c3nc4sc(C5CCNCC5)cc4s3)nc2c(C)n1 [Compound 239, 4-(2-{6,8-dimethylimidazo[1,2-a]pyrazin-2-yl}thieno[2,3-d][1,3]thiazol-5-yl)piperidine] |
| < 0.1 | < 0.1 | < 0.1 | < 0.1 | < 0.1 | < 0.1 | < 0.1 | < 0.1 | COc1c(-c2nc3sc(C4CCNCC4)cc3s2)cc2cn(C)nc2c1F [Compound 242, 7-fluoro-6-methoxy-2-methyl-5-[5-(piperidin-4-yl)thieno[2,3-d][1,3]thiazol-2-yl]indazole] |
| 0.1 to 1 | 1 to 10 | 0.1 to 1 | 1 to 10 | 0.1 to 1 | < 0.1 | 0.1 to 1 | < 0.1 | Cc1cn2cc(-c3nc4sc(C5CCNCC5)cc4s3)nc(C)c2n1 [Compound 270, 4-(2-{2,8-dimethylimidazo[1,2-a]pyrazin-6-yl}thieno[2,3-d][1,3]thiazol-5-yl)piperidine] |
| 0.1 to 1 | 0.1 to 1 | 0.1 to 1 | 0.1 to 1 | 0.1 to 1 | < 0.1 | 0.1 to 1 | < 0.1 | Cc1cn2cc(-c3nc4sc(C5CCNCC5)cc4s3)ccc2n1 [Compound 271, 4-(2-{2-methylimidazo[1,2-a]pyridin-6-yl}thieno[2,3-d][1,3]thiazol-5-yl)piperidine] |
| 0.1 to 1 | 0.1 to 1 | 0.1 to 1 | 0.1 to 1 | < 0.1 | < 0.1 | < 0.1 | < 0.1 | Cn1cc2cc(N3Cc4sc(C5CCNCC5)cc4C3=O)cc(F)c2n1 [Compound 1119, 5-(7-fluoro-2-methylindazol-5-yl)-2-(piperidin-4-yl)-6H-thieno[2,3-c]pyrrol-4-one] |
| 0.1 to 1 | 0.1 to 1 | 0.1 to 1 | 0.1 to 1 | 0.1 to 1 | 0.1 to 1 | 0.1 to 1 | 0.1 to 1 | Cc1cc(N2Cc3sc(C4CCNCC4)cc3C2=O)cc2cn(C)nc12 [Compound 1122] |
| 0.1 to 1 | 0.1 to 1 | 0.1 to 1 | 0.1 to 1 | < 0.1 | < 0.1 | < 0.1 | < 0.1 | Cc1cn2nc(N3Cc4sc(C5CCNCC5)cc4C3=O)cc(C)c2n1 [Compound 1127] |
